Values joined by “and” are separate entries in the source; they are usually repeats but may differ in a detail not shown here. Identical values can stand only once.
Tested on: DBA/1 mice, CIA model
Test: Collagen-induced arthritis model in mice
Type: in vivo, mouse
Parameters: Total AUC Sum (d1-11) / Total AUC Sum (d1-11), Mean: scale not given here
Settings: MTX 1.5 mg/kg PO; for Summed Prophylactic (Non-Enrollment) Paw Score / Total AUC Sum (d1-11), Prophylactic (Non-Enrollment) Paw Score: QD
Procedure: Collagen-induced arthritis (CIA) model was performed at Bolder BioPATH, USA. Study design and animal usage was approved by Bolder BioPATH’s Institutional Animal Care and Use Committee. CIA was induced in 6–7 week old male DBA/1 mice with body weight of 15–26 g (Harlan, Inc) by intradermal injection of Freund’s Complete Adjuvant (Difco) containing bovine type II collagen (Bolder BioPATH) on day 0 and again on day 21 according to the standard protocol. […] After that mice were randomized into six groups: a control group of four, vehicle group and four treatment groups of ten mice each. […] Each paw was scored daily for inflammation. Therapeutic and prophylactic paws were considered. At study termination mice were euthanized by CO2 inhalation followed by cervical dislocation. Fore paws, hind paws, and knees were removed for microscopy.
Mice were weighed on arthritis days 1, 3, 5, 7, 9, and 11 (prior to necropsy). Daily clinical scores were given for each of the paws (right front, left front, right rear, left rear) on days 1–11 using the following criteria:
After 1–2 days in fixative and 4–5 days in 5% formic acid for decalcification, tissues were trimmed, processed for paraffin embedding, sectioned at 8 µm and stained with toluidine blue. Hind paws and knees were embedded and sectioned in the frontal plane. Two joints from each animal were processed for histopathology evaluation. The joints were then scored by two independent readers as indicated below. When scoring, severity of changes as well as number of individual joints affected were considered. When only 1–3 joints of the paws or ankles out of a possibility of numerous metacarpal/metatarsal/digit or tarsal/tibiotarsal joints were affected, an arbitrary assignment of a maximum score of 1, 2 or 3 for parameters below was given depending on severity of changes. If more than 3 joints were involved, the criteria below were applied to the most severely affected/majority of joints.

[1] = all joints, QD (Group 3), group mean
[2] = all joints, QD (Group 3), individual animals

CN(Cc1cnc2nc(N)nc(N)c2n1)c1ccc(C(=O)N[C@@H](CCC(=O)O)C(=O)O)cc1 [MTX, methotrexate, reference compound]
Summed Prophylactic (Non-Enrollment) Paw Score (Day 11, group mean): 7.40
Summed Prophylactic (Non-Enrollment) Paw Score (Day 11, individual animals): 6 and 5 and 4 and 14 and 10 and 8
Total AUC Sum (d1-11), Prophylactic (Non-Enrollment) Paw Score (group mean): 52.20
Total AUC Sum (d1-11), Prophylactic (Non-Enrollment) Paw Score (individual animals): 41.0 and 33.5 and 35.0 and 16.0 and 80.0 and 101.0 and 88.0 and 58.0 and 34.5
% inhibition, Bone Resorption score (all joints, QD (Group 3)): 8%
% inhibition, Cartilage Damage score (all joints, QD (Group 3)): 3%
% inhibition, Inflammation score (all joints, QD (Group 3)): 4%
% inhibition, Pannus score (all joints, QD (Group 3)): 8%
% inhibition, Periosteal Bone Formation score (all joints, QD (Group 3)): 3%
% inhibition, Periosteal Bone Width (all joints, QD (Group 3)): 6%
% inhibition, Summed Scores (all joints, QD (Group 3)): 5%
Histopathology Scores Bone Resorption, Mean [1]: 1.58
Histopathology Scores Cartilage Damage, Mean [1]: 3.21
Histopathology Scores Inflammation, Mean [1]: 3.55
Histopathology Scores Pannus, Mean [1]: 1.58
Histopathology Scores Periosteal Bone Formation, Mean [1]: 1.10
Histopathology Scores Summed Scores, Mean [1]: 11.03
Periosteal Bone Width (40*25x measure), Mean [1]: 92.67 μm
Histopathology Scores Bone Resorption [2]: 1.17 and 1.67 and 1.08 and 1.00 and 2.33 and 1.58 and 1.25 and 1.83 and 2.25
Histopathology Scores Cartilage Damage [2]: 1.92 and 3.00 and 1.67 and 2.17 and 4.17 and 4.33 and 3.83 and 3.17 and 4.83
Histopathology Scores Inflammation [2]: 2.33 and 3.08 and 2.50 and 2.25 and 4.67 and 4.83 and 4.00 and 3.33 and 3.83
Histopathology Scores Pannus [2]: 1.17 and 1.67 and 1.08 and 1.00 and 2.33 and 1.58 and 1.25 and 1.83 and 2.25
Histopathology Scores Periosteal Bone Formation [2]: 0.83 and 1.33 and 0.50 and 1.17 and 1.50
Histopathology Scores Summed Scores [2]: 7.42 and 10.75 and 6.83 and 7.25 and 13.33 and 15.33 and 12.17 and 9.67 and 12.00 and 15.50
Periosteal Bone Width (40*25x measure) [2]: 80.00 μm and 106.67 μm and 40.00 μm and 140.00 μm and 86.67 μm and 60.00 μm and 146.67 μm
% inhibition to Vehicle, Total AUC Sum (d1-11) (therapeutic/enrollment paw score, QD (Group 3)): 3%
Total AUC Sum (d1-11), Mean (therapeutic/enrollment paw score, QD (Group 3), group mean): 61.65
Total AUC Sum (d1-11) (therapeutic/enrollment paw score, QD (Group 3), individual animals): 43 and 36 and 65 and 75 and 130 and 82 and 38 and 78
% inhibition to Vehicle, paw score Day 1 (therapeutic/enrollment paws, Day 1, QD (Group 3)): 0%
Summed Therapeutic (Enrollment) Paw Score Day 1, Mean (therapeutic/enrollment paws, Day 1, QD (Group 3), group mean): 3.20
Summed Therapeutic (Enrollment) Paw Score Day 1 (therapeutic/enrollment paws, Day 1, QD (Group 3), individual animals): 2 and 4 and 6
% inhibition to Vehicle, paw score Day 2 (therapeutic/enrollment paws, Day 2, QD (Group 3)): 9%
Summed Therapeutic (Enrollment) Paw Score Day 2, Mean (therapeutic/enrollment paws, Day 2, QD (Group 3), group mean): 4.30
Summed Therapeutic (Enrollment) Paw Score Day 2 (therapeutic/enrollment paws, Day 2, QD (Group 3), individual animals): 3 and 2 and 5 and 6 and 8
% inhibition to Vehicle, paw score Day 3 (therapeutic/enrollment paws, Day 3, QD (Group 3)): 12%
Summed Therapeutic (Enrollment) Paw Score Day 3, Mean (therapeutic/enrollment paws, Day 3, QD (Group 3), group mean): 5.20
Summed Therapeutic (Enrollment) Paw Score Day 3 (therapeutic/enrollment paws, Day 3, QD (Group 3), individual animals): 4 and 3 and 5 and 7 and 9
% inhibition to Vehicle, paw score Day 4 (therapeutic/enrollment paws, Day 4, QD (Group 3)): −2%
Summed Therapeutic (Enrollment) Paw Score Day 4, Mean (therapeutic/enrollment paws, Day 4, QD (Group 3), group mean): 6.30
Summed Therapeutic (Enrollment) Paw Score Day 4 (therapeutic/enrollment paws, Day 4, QD (Group 3), individual animals): 4 and 3 and 7 and 8 and 12 and 9
% inhibition to Vehicle, paw score Day 5 (therapeutic/enrollment paws, Day 5, QD (Group 3)): −2%
Summed Therapeutic (Enrollment) Paw Score Day 5, Mean (therapeutic/enrollment paws, Day 5, QD (Group 3), group mean): 6.70
Summed Therapeutic (Enrollment) Paw Score Day 5 (therapeutic/enrollment paws, Day 5, QD (Group 3), individual animals): 4 and 7 and 8 and 15 and 9
% inhibition to Vehicle, paw score Day 6 (therapeutic/enrollment paws, Day 6, QD (Group 3)): −2%
Summed Therapeutic (Enrollment) Paw Score Day 6, Mean (therapeutic/enrollment paws, Day 6, QD (Group 3), group mean): 6.70
Summed Therapeutic (Enrollment) Paw Score Day 6 (therapeutic/enrollment paws, Day 6, QD (Group 3), individual animals): 4 and 7 and 8 and 15 and 9
% inhibition to Vehicle, paw score Day 7 (therapeutic/enrollment paws, Day 7, QD (Group 3)): 0%
Summed Therapeutic (Enrollment) Paw Score Day 7, Mean (therapeutic/enrollment paws, Day 7, QD (Group 3), group mean): 6.80
Summed Therapeutic (Enrollment) Paw Score Day 7 (therapeutic/enrollment paws, Day 7, QD (Group 3), individual animals): 5 and 4 and 7 and 8 and 15 and 9
% inhibition to Vehicle, paw score Day 8 (therapeutic/enrollment paws, Day 8, QD (Group 3)): 3%
Summed Therapeutic (Enrollment) Paw Score Day 8, Mean (therapeutic/enrollment paws, Day 8, QD (Group 3), group mean): 6.80
Summed Therapeutic (Enrollment) Paw Score Day 8 (therapeutic/enrollment paws, Day 8, QD (Group 3), individual animals): 5 and 4 and 7 and 8 and 15 and 9
% inhibition to Vehicle, paw score Day 9 (therapeutic/enrollment paws, Day 9, QD (Group 3)): 5%
Summed Therapeutic (Enrollment) Paw Score Day 9, Mean (therapeutic/enrollment paws, Day 9, QD (Group 3), group mean): 6.90
Summed Therapeutic (Enrollment) Paw Score Day 9 (therapeutic/enrollment paws, Day 9, QD (Group 3), individual animals): 5 and 4 and 7 and 8 and 15 and 9
% inhibition to Vehicle, paw score Day 10 (therapeutic/enrollment paws, Day 10, QD (Group 3)): 7%
Summed Therapeutic (Enrollment) Paw Score Day 10, Mean (therapeutic/enrollment paws, Day 10, QD (Group 3), group mean): 6.90
Summed Therapeutic (Enrollment) Paw Score Day 10 (therapeutic/enrollment paws, Day 10, QD (Group 3), individual animals): 5 and 4 and 7 and 8 and 15 and 9
% inhibition to Vehicle, paw score Day 11 (therapeutic/enrollment paws, Day 11, QD (Group 3)): 7%
Summed Therapeutic (Enrollment) Paw Score Day 11, Mean (therapeutic/enrollment paws, Day 11, QD (Group 3), group mean): 6.90
Summed Therapeutic (Enrollment) Paw Score Day 11 (therapeutic/enrollment paws, Day 11, QD (Group 3), individual animals): 5 and 4 and 7 and 8 and 15 and 9
